Laboratory results: patent publication EP0070133B1, “Secondary phenylethanol amines, processes for their preparation and their pharmaceutical application” (priority 1981, dated 1983)
Counter-ions that a name gives are not always drawn. Like-named read-outs stand apart in the source and are kept apart here.

How the values were obtained:
Female CFLP mice [1] = assay: Anti-hyperglycaemic activity: subcutaneous glucose load in fasted mice, area under blood glucose curve; format: in vivo; conditions: glucose 1 g/kg sc, 2 hour period, vs water control
Method: Female CFLP mice, each weighing approximately 25 g, were fasted for 24 hours prior to the study. The compounds under study were administered orally as an aqueous solution to each of 6 mice. 6 mice were given water as a control. 30 minutes later a blood sample (20 µl) was obtained from the tail for the analysis of blood glucose. Immediately after taking this blood sample, glucose (1 g/kg body weight) was administered subcutaneously to each mouse. Blood samples were then obtained from each mouse at 30 minute intervals for 120 minutes.
Compounds that produced a significant (P<0.05) reduction of blood glucose, compared with control mice given water, at any time interval, were considered active. The area under the blood glucose curve over the 2 hour period after the administration of the glucose was calculated for each compound and compared with the value for control animals.

Female CFLP mice [2] = assay: Effect on energy expenditure and food intake of mice; format: in vivo; conditions: Mus musculus; for response vs control in vivo at 24.6 mg/kg / response vs control in vivo at 30.2 mg/kg / response vs control in vivo at 28.9 mg/kg / response vs control in vivo at 24.2 mg/kg / response vs control in vivo at 29.5 mg/kg / response vs control in vivo at 26.9 mg/kg / response vs control in vivo at 23.4 mg/kg / response vs control in vivo at 22 mg/kg / response vs control in vivo at 27.3 mg/kg / response vs control in vivo at 6.5 mg/kg / response vs control in vivo at 25.5 mg/kg / response vs control in vivo at 26.4 mg/kg / response vs control in vivo at 21.8 mg/kg / response vs control in vivo at 22.6 mg/kg / response vs control in vivo at 26.3 mg/kg: po, 21 h; for response vs control in vivo at 24.3 mg/kg: 24.3 mg/kg po; for response vs control in vivo at 24.3 mg/kg / response vs control in vivo at 18.4 mg/kg: mice, 21 hours after dosing, % of mice dosed with water; for response vs control in vivo at 18.4 mg/kg: 18.4 mg/kg po
[3] = read-out: Mean Energy Expenditure (%)

SMILES: CNCCOc1ccc(CC(C)NCC(O)c2cc3ccccc3o2)cc1.Cl.Cl (stereo not shown) [Example 4, N-[2-(4-(2-Methylaminoethoxy)phenyl)-1-methylethyl]-2-hydroxy-2-(2-benzofuranyl) ethanamine dihydrochloride]
- Reduction in area under Blood glucose curve (%) (Female CFLP mice [1]; 2.5 μ moles/kg po): 18%
- response vs control in vivo at 24.6 mg/kg (Female CFLP mice [2]; [3]): 110%
- response vs control in vivo at 24.6 mg/kg (Female CFLP mice [2]; read-out: Mean Food Intake (%)): 76%

SMILES: Br.Br.CNCCOc1ccc(CC(C)NCC(O)c2cccc(Cl)c2)cc1F (stereo not shown) [Example 5, N-[2-(3-Fluoro-4-(2-methylaminoethoxy)phenyl)-1-methylethyl)-2-hydroxy-2-(3-chlorophenyl) ethanamine dihydrobromide]
- Reduction in area under Blood glucose curve (%) (Female CFLP mice [1]; 1 μ moles/kg po): 38%
- response vs control in vivo at 30.2 mg/kg (Female CFLP mice [2]; [3]): 134%
- response vs control in vivo at 30.2 mg/kg (Female CFLP mice [2]; read-out: Mean Food Intake (%)): 102%

SMILES: Br.Br.CCc1cccc(C(O)CNC(C)Cc2ccc(OCCNC)cc2)c1 (stereo not shown) [Example 6, N-[2-(4-(2-Methylaminoethoxy)phenyl)-1-methylethyl]-2-hydroxy-2-(3-ethylphenyl)ethanamine dihydrobromide]
- Reduction in area under Blood glucose curve (%) (Female CFLP mice [1]; 50 μ moles/kg po): 36.5%
- response vs control in vivo at 28.9 mg/kg (Female CFLP mice [2]; [3]): 97%
- response vs control in vivo at 28.9 mg/kg (Female CFLP mice [2]; read-out: Mean Food Intake (%)): 98%

SMILES: CNCCOc1ccc(CC(C)NCC(O)c2ccc(Cl)cc2)cc1 (stereo not shown) [Example 12, N-[2-(4-(2-Methylaminoethoxy)phenyl)-1-methylethyl]-2-hydroxy-2-(4-chlorophenyl)ethanamine dihydrochloride]
- response vs control in vivo at 24.2 mg/kg (Female CFLP mice [2]; [3]): 120%
- response vs control in vivo at 24.2 mg/kg (Female CFLP mice [2]; read-out: Mean Food Intake (%)): 99%

SMILES: CC(Cc1ccc(OCCNCc2ccccc2)cc1)NCC(O)c1cccc(Cl)c1 (stereo not shown) [Example 13, N-[2-4-(2-Benzylaminoethoxy)phenyl)-1-methylethyl]-2-hydroxy-2-(3-chlorophenyl)ethanamine dihydrochloride monohydrate]
- Reduction in area under Blood glucose curve (%) (Female CFLP mice [1]; 1 μ moles/kg po): 62%
- response vs control in vivo at 29.5 mg/kg (Female CFLP mice [2]; [3]): 139%
- response vs control in vivo at 29.5 mg/kg (Female CFLP mice [2]; read-out: Mean Food Intake (%)): 78%

SMILES: CC(Cc1ccc(OCCN2CCCCCC2)cc1)NCC(O)c1cccc(C(F)(F)F)c1 (stereo not shown) [Example 15, N-[2-(4-(2-(1-Homopiperidine)ethoxy)phenyl)-1-methylethyl]-2-hydroxy-2-(3-trifluoromethylphenyl)-ethanamine dihydrochloride]
- Reduction in area under Blood glucose curve (%) (Female CFLP mice [1]; 1 μ moles/kg po): 17%
- response vs control in vivo at 26.9 mg/kg (Female CFLP mice [2]; [3]): 117%
- response vs control in vivo at 26.9 mg/kg (Female CFLP mice [2]; read-out: Mean Food Intake (%)): 77%

SMILES: CCOC(=O)NCCOc1ccc(CC(C)NCC(O)c2cccc(Cl)c2)cc1 (stereo not shown) [Example 16, N-[2-(4-(2-Ethoxycarbonylamioethoxy)phenyl)-1-methylethyl]-2-hydroxy-2-(3-chlorophenyl)ethanamine]
- Reduction in area under Blood glucose curve (%) (Female CFLP mice [1]; 1 μ moles/kg po): 68%
- response vs control in vivo at 23.4 mg/kg (Female CFLP mice [2]; [3]): 141%
- response vs control in vivo at 23.4 mg/kg (Female CFLP mice [2]; read-out: Mean Food Intake (%)): 91%

SMILES: CNC(=O)NCCOc1ccc(CC(C)NCC(O)c2cccc(C(F)(F)F)c2)cc1 (stereo not shown) [Example 17, N-[2-(4-(2-Methylaminocarbonylaminoethoxy)phenyl)-1-methylethyl]-2-hydroxy-2-(3-trifluoromethylphenyl)ethanamine]
- response vs control in vivo at 22 mg/kg (Female CFLP mice [2]; [3]): 114%
- response vs control in vivo at 22 mg/kg (Female CFLP mice [2]; read-out: Mean Food Intake (%)): 87%

SMILES: CC(Cc1ccc(OCCN)cc1)NCC(O)c1cccc(C(F)(F)F)c1.Cl.Cl.O.O (stereo not shown) [Example 19, N-[2-(4-(2-Aminoethoxy)phenyl)-1-methylethyl]-2-hydroxy-2-(3-trifluoromethylphenyl)ethanamine dihydrochloride, dihydrate]
- Reduction in area under Blood glucose curve (%) (Female CFLP mice [1]; 1 μ moles/kg po): 46%
- response vs control in vivo at 27.3 mg/kg (Female CFLP mice [2]; [3]): 135%
- response vs control in vivo at 27.3 mg/kg (Female CFLP mice [2]; read-out: Mean Food Intake (%)): 94%

SMILES: CNCCOc1ccc(C[C@H](C)NC[C@H](O)c2cccc(C(F)(F)F)c2)cc1 [Example 23, N-[2-(4-(2-Methylaminoethoxy)phenyl)-1-methylethyl]-2-hydroxy-2-(3-trifluoromethylphenyl)ethanamine dihydrochloride, (RS,SR) diastereoisomer]
- Reduction in area under Blood glucose curve (%) (Female CFLP mice [1]; 2.5 μ moles/kg po): 20%
- response vs control in vivo at 6.5 mg/kg (Female CFLP mice [2]; [3]): 109%
- response vs control in vivo at 6.5 mg/kg (Female CFLP mice [2]; read-out: Mean Food Intake (%)): 112%

SMILES: CC(Cc1ccc(OCCN2CCCC2)cc1)NCC(O)c1cccc(C(F)(F)F)c1 (stereo not shown) [Example 25, N-[2-(4-(2-11-Pyrrolidine)ethoxy)phenyl)-1-methylethyl]-2-hydroxy-2-(3-trifluoromethylphenyl)ethanamine dihydrochloride]
- response vs control in vivo at 25.5 mg/kg (Female CFLP mice [2]; [3]): 117%
- response vs control in vivo at 25.5 mg/kg (Female CFLP mice [2]; read-out: Mean Food Intake (%)): 87%

SMILES: CC(Cc1ccc(OCCN2CCCCC2)cc1)NCC(O)c1cccc(C(F)(F)F)c1 (stereo not shown) [Example 26, N-[2-(4-(2-(1-Piperidine)ethoxy)phenyl)-1-methylethyl]-2-hydroxy-2-(3-trifluoromethylphenyl)ethanamine dihydrochloride monohydrate]
- response vs control in vivo at 26.4 mg/kg (Female CFLP mice [2]; [3]): 125%
- response vs control in vivo at 26.4 mg/kg (Female CFLP mice [2]; read-out: Mean Food Intake (%)): 63%

SMILES: CCNCCOc1ccc(CC(C)NCC(O)c2cccc(C(F)(F)F)c2)cc1 (stereo not shown) [Example 27, N-[2-(4-(2-Ethylaminoethoxy)phenyll-1-methylethyl]-2-hydroxy-2-(3-trifluoromethylphenyl)ethanaminedihydrochloride]
- response vs control in vivo at 24.2 mg/kg (Female CFLP mice [2]; [3]): 143%
- response vs control in vivo at 24.2 mg/kg (Female CFLP mice [2]; read-out: Mean Food Intake (%)): 100%

SMILES: CNCCOc1ccc(C[C@@H](C)NC[C@H](O)c2cccc(Cl)c2)cc1 [Example 28, N-[2-(4-(2-Methylaminoethoxy)phenyl)-1-methylethyl]-2-hydroxy-2-(3-chlorophenyl)ethanamine dihydrochloride - (RR,SS) diastereoisomer]
- Reduction in area under Blood glucose curve (%) (Female CFLP mice [1]; 0.5 μ moles/kg po): 42%
- response vs control in vivo at 21.8 mg/kg (Female CFLP mice [2]; [3]): 135%
- response vs control in vivo at 21.8 mg/kg (Female CFLP mice [2]; read-out: Mean Food Intake (%)): 108%

SMILES: CNCCOc1cccc(CC(C)NCC(O)c2cccc(Cl)c2)c1 (stereo not shown) [Example 29, N-[2-(3-(2-Methylaminoethoxy)phenyll-1-methylethyl]-2-hydroxy-2-(3-chlorophenyl)ethanaminedihydrochloride]
- Reduction in area under Blood glucose curve (%) (Female CFLP mice [1]; 12.5 μ moles/kg po): 48%
- response vs control in vivo at 21.8 mg/kg (Female CFLP mice [2]; [3]): 123%
- response vs control in vivo at 21.8 mg/kg (Female CFLP mice [2]; read-out: Mean Food Intake (%)): 107%

SMILES: CC(Cc1ccc(OCCN2CCOCC2)cc1)NCC(O)c1cccc(C(F)(F)F)c1 (stereo not shown) [Example 30, N-[2-(4-(2-(1-Morpholine)ethoxy)phenyl)-1-methylethyl]-2-hydroxy-2-(3-trifluoromethylphenyl)ethanamine]
- response vs control in vivo at 22.6 mg/kg (Female CFLP mice [2]; [3]): 125%
- response vs control in vivo at 22.6 mg/kg (Female CFLP mice [2]; read-out: Mean Food Intake (%)): 95%

SMILES: CC(COc1ccc(CC(C)NCC(O)c2cccc(C(F)(F)F)c2)cc1)NCc1ccccc1 (stereo not shown) [Example 31, N-[2-(4-(2-Benzylaminopropoxy)phenyl)-1-methylethyl]-2-hydroxy-2-(3-trifluoromethylphenyl)ethanamine]
- Reduction in area under Blood glucose curve (%) (Female CFLP mice [1]; 50 μ moles/kg po): 45%
- response vs control in vivo at 24.3 mg/kg (Female CFLP mice [2]; [3]): 100%
- response vs control in vivo at 24.3 mg/kg (Female CFLP mice [2]; read-out: Mean Food Intake (%)): 59%

SMILES: CNCCCCCCOc1ccc(CC(C)NCC(O)c2cccc(C(F)(F)F)c2)cc1 (stereo not shown) [Example 33, N-[2-(4-(6-Methylaminohexyloxy)phenyl)-1-methylethyl]-2-hydroxy-2-(3-trifluoromethylphenyl)-ethanamine dihydrochloride]
- response vs control in vivo at 26.3 mg/kg (Female CFLP mice [2]; [3]): 131%
- response vs control in vivo at 26.3 mg/kg (Female CFLP mice [2]; read-out: Mean Food Intake (%)): 80%

SMILES: NCCOc1ccc(CCNCC(O)c2cccc(C(F)(F)F)c2)cc1 (stereo not shown) [Example 34, N-[2-(4-(2-Aminoethoxy)phenyl)ethyl]-2-hydroxy-2-(3-trifluoromethylphenyl)ethanamine]
- response vs control in vivo at 18.4 mg/kg (Female CFLP mice [2]; [3]): 117%
- response vs control in vivo at 18.4 mg/kg (Female CFLP mice [2]; read-out: Mean Food Intake (%)): 103%
